In patent publication US6914045B2, “Glycopeptide antibiotics” (Wyeth Holdings Corporation, priority 2001, dated 2005):
≈ marks a conversion by molar mass, not a printed value.

How the values were obtained:
Test in all cases: in vitro antibacterial evaluation, MIC by broth dilution
Type in all cases: cell-based
[1] = test system: Enterococcus sp.; conditions: broth dilution, 18 hours at 35° C.
Procedure, shortened: (§1)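 Inoculum 5×10^5 CFU/mL; concentrations 64 to 0.06 μg/mL; MIC defined as lowest inhibitory level. Conducted by broth dilution under NCCLS guidelines.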

[2] = test system: Escherichia coli; conditions: 18 hours at 35° C.
Procedure, shortened: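 Step 1: dilute antibiotic across 64-0.06 μg/mL in Muller-Hinton II […]. Step 2: inoculate at 5×10^5 CFU/mL.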

[3] = test system: Staphylococcus sp.; conditions: broth dilution, 18 hours at 35° C.
Procedure, shortened: as §1

[4] = test system: Streptococcus sp.; conditions: broth dilution, 18 hours at 35° C.
Procedure, shortened: as §1

CC(c1ccccc1)C1NC(=O)CNC(=O)C(CO)NC(=O)C(C(O)C2CNC(=N)N2C2OC(CO)C(O)C(O)C2O)NC(=O)C(C(O)C2CNC(=N)N2)NC(=O)C(Cc2ccc(OC3OC(CO)C(OC4OC(CO)C(O)C(O)C4O)C(O)C3O)c(N)c2)NC1=O (stereo not drawn) [Example 287, Cyclo[glycyl-β-methylphenylalanyl-2-amino-O-(4-O-hexopyranosylhexopyranosyl)tyrosyl-3-(2-iminoimidazolidin-4-yl)seryl-3-(3-hexopyranosyl-2-iminoimidazolidin-4-yl)serylseryl]]
MIC Enterococcus avium (GC 4558) ([1]; Enterococcus avium (GC 4558)): 64 µg/mL (≈ 48.8 µM) | MIC Enterococcus faecalis (ATCC 29212) ([1]; Enterococcus faecalis (ATCC 29212)): >64 µg/mL | MIC Enterococcus faecalis (GC 4553) ([1]; Enterococcus faecalis (GC 4553)): >64 µg/mL | MIC Enterococcus faecalis (GC 4554) ([1]; Enterococcus faecalis (GC 4554)): >64 µg/mL | MIC Enterococcus faecalis (GC 6189) ([1]; Enterococcus faecalis (GC 6189)): >64 µg/mL | MIC Enterococcus faecium (GC 2243) ([1]; Enterococcus faecium (GC 2243)): >64 µg/mL | MIC Enterococcus faecium (GC 4556) ([1]; Enterococcus faecium (GC 4556)): >64 µg/mL | MIC Enterococcus faecium (GC 4557) ([1]; Enterococcus faecium (GC 4557)): 64 µg/mL (≈ 48.8 µM) | MIC Enterococcus faecalis (ATCC 29212) ([1]; strain ATCC 29212): >64 µg/mL | MIC Enterococcus faecalis (GC 2242) ([1]; strain GC 2242): >64 µg/mL | MIC Enterococcus faecium (GC 2243) ([1]; strain GC 2243): >64 µg/mL | MIC Enterococcus faecalis (GC 2691) ([1]; strain GC 2691): >64 µg/mL | MIC Enterococcus faecalis (GC 3059) ([1]; strain GC 3059): >64 µg/mL | MIC Enterococcus faecalis (GC 4552) ([1]; strain GC 4552): >64 µg/mL | MIC Enterococcus faecalis (GC 4553) ([1]; strain GC 4553): >64 µg/mL | MIC Enterococcus faecalis (GC 4554) ([1]; strain GC 4554): >64 µg/mL | MIC Enterococcus faecium (GC 4556) ([1]; strain GC 4556): >64 µg/mL | MIC Enterococcus faecium (GC 4557) ([1]; strain GC 4557): 64 µg/mL (≈ 48.8 µM) | MIC Enterococcus avium (GC 4558) ([1]; strain GC 4558): 64 µg/mL (≈ 48.8 µM) | MIC Enterococcus faecalis (GC 6189) ([1]; strain GC 6189): >64 µg/mL | MIC Escherichia coli (ATCC 25922) ([2]; Escherichia coli (ATCC 25922)): >64 µg/mL | MIC Escherichia coli (GC 4559) ([2]; Escherichia coli (GC 4559)): >64 µg/mL | MIC Escherichia coli (GC 4560) ([2]; Escherichia coli (GC 4560)): >64 µg/mL | MIC Coagulase Negative Staphylococcus (GC 4547) [3]: >64 µg/mL | MIC Coagulase Negative Staphylococcus (GC 4548) [3]: >64 µg/mL | MIC Coagulase Negative Staphylococcus (GC 4549) [3]: >64 µg/mL | MIC Coagulase Negative Staphylococcus (GC 4551) [3]: >64 µg/mL | MIC Coagulase Negative Staphylococcus (GC 6257) [3]: >64 µg/mL | MIC Staphylococcus aureus (ATCC 29213) [3]: >64 µg/mL | MIC Staphylococcus aureus (GC 1131) [3]: >64 µg/mL | MIC Staphylococcus aureus (GC 3051) [3]: >64 µg/mL | MIC Staphylococcus aureus (GC 3053) [3]: >64 µg/mL | MIC Staphylococcus aureus (GC 4541) [3]: >64 µg/mL | MIC Staphylococcus aureus (GC 4542) [3]: >64 µg/mL | MIC Staphylococcus aureus (GC 4544) [3]: >64 µg/mL | MIC Staphylococcus aureus (GC 4545) [3]: >64 µg/mL | MIC Staphylococcus aureus-SMITH (GC 4543) [3]: >64 µg/mL | MIC Staphylococcus haemolyticus (GC 4546) [3]: >64 µg/mL | MIC Staphylococcus aureus (ATCC 29213) ([3]; strain ATCC 29213): >64 µg/mL | MIC Staphylococcus aureus (GC 1131) ([3]; strain GC 1131): >64 µg/mL | MIC Staphylococcus aureus (GC 3051) ([3]; strain GC 3051): >64 µg/mL | MIC Staphylococcus aureus (GC 3053) ([3]; strain GC 3053): >64 µg/mL | MIC Staphylococcus aureus (GC 4541) ([3]; strain GC 4541): >64 µg/mL | MIC Staphylococcus aureus (GC 4542) ([3]; strain GC 4542): >64 µg/mL | MIC Staphylococcus aureus (GC 4544) ([3]; strain GC 4544): >64 µg/mL | MIC Staphylococcus aureus (GC 4545) ([3]; strain GC 4545): >64 µg/mL | MIC Staphylococcus haemolyticus (GC 4546) ([3]; strain GC 4546): >64 µg/mL | MIC Coagulase Negative Staphylococcus (GC 4547) ([3]; strain GC 4547): >64 µg/mL | MIC Coagulase Negative Staphylococcus (GC 4548) ([3]; strain GC 4548): >64 µg/mL | MIC Coagulase Negative Staphylococcus (GC 4549) ([3]; strain GC 4549): >64 µg/mL | MIC Coagulase Negative Staphylococcus (GC 4551) ([3]; strain GC 4551): >64 µg/mL | MIC Coagulase Negative Staphylococcus (GC 6257) ([3]; strain GC 6257): >64 µg/mL | MIC Staphylococcus aureus-SMITH (GC 4543) ([3]; strain SMITH GC 4543): >64 µg/mL | MIC Streptococcus pneumoniae (ATCC 6301) ([4]; strain ATCC 6301): 64 µg/mL (≈ 48.8 µM) | MIC Streptococcus pneumoniae (GC 1894) ([4]; strain GC 1894): 64 µg/mL (≈ 48.8 µM) | MIC Streptococcus pyogenes (GC 4563) ([4]; strain GC 4563): >64 µg/mL | MIC Streptococcus agalactiae (GC 4564) ([4]; strain GC 4564): >64 µg/mL | MIC Streptococcus pneumoniae (GC 4565) ([4]; strain GC 4565): 64 µg/mL (≈ 48.8 µM)
